Test results taken from PubChem BioAssay (NCI).
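These data come from cells grown in 96-well plates and exposed to compound for 48 hours at five concentrations. Here, GI50 denotes the concentration required for 50% inhibition of growth. TGI denotes the concentration required for complete inhibition of growth.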

Assays:
Experiment in all cases: DTP human tumour cell line panel, 48 h
SW-620 colon = system: SW-620 colon
HOP-92 NSCLC = system: HOP-92 NSCLC
NCI/ADR-RES ovarian = system: NCI/ADR-RES ovarian
T-47D breast = system: T-47D breast
SK-MEL-28 melanoma = system: SK-MEL-28 melanoma
BT-549 breast = system: BT-549 breast
IGROV1 ovarian = system: IGROV1 ovarian
SNB-75 CNS = system: SNB-75 CNS
HS 578T breast = system: HS 578T breast
786-0 renal = system: 786-0 renal
SF-295 CNS = system: SF-295 CNS
DU-145 prostate = system: DU-145 prostate
OVCAR-8 ovarian = system: OVCAR-8 ovarian
U251 CNS = system: U251 CNS
RXF 393 renal = system: RXF 393 renal
UACC-62 melanoma = system: UACC-62 melanoma
NCI-H226 lung = system: NCI-H226 lung
UACC-257 melanoma = system: UACC-257 melanoma
SK-MEL-2 melanoma = system: SK-MEL-2 melanoma
COLO 205 colon = system: COLO 205 colon
MDA-MB-231 breast = system: MDA-MB-231 breast
HCT-116 colon = system: HCT-116 colon
MCF7 breast = system: MCF7 breast
RPMI-8226 leukemia = system: RPMI-8226 leukemia
OVCAR-5 ovarian = system: OVCAR-5 ovarian
MDA-MB-435 = system: MDA-MB-435
HT29 colon = system: HT29 colon
SNB-19 CNS = system: SNB-19 CNS

With `CN(C)CCC(=O)C(=Cc1ccc(O)cc1)C(=O)CCN(C)C` as the compound, how does the GI50 (SW-620 colon) read?
Its GI50 is 67.2 µM.

What about the TGI (SW-620 colon) of the same compound?
The TGI was > 100 µM.

What about the GI50 (HOP-92 NSCLC) of the same compound?
The GI50 was 95.6 µM.

What about the TGI (HOP-92 NSCLC) of the same compound?
Its TGI is > 100 µM.

And the GI50 (NCI/ADR-RES ovarian)?
Its GI50 is > 100 µM.

What about the TGI (NCI/ADR-RES ovarian) of the same compound?
The TGI was > 100 µM.

What about the GI50 (T-47D breast) of the same compound?
Its GI50 is 47.7 µM.

What about the TGI (T-47D breast) of the same compound?
The TGI was > 100 µM.

And the GI50 (SK-MEL-28 melanoma)?
The GI50 was > 100 µM.

And the TGI (SK-MEL-28 melanoma)?
Its TGI is > 100 µM.

What about the GI50 (BT-549 breast) of the same compound?
The GI50 was > 100 µM.

What about the TGI (BT-549 breast) of the same compound?
Its TGI is > 100 µM.

And the GI50 (IGROV1 ovarian)?
The GI50 was > 100 µM.

What about the TGI (IGROV1 ovarian) of the same compound?
The TGI was > 100 µM.

What about the GI50 (SNB-75 CNS) of the same compound?
Its GI50 is > 100 µM.

And the TGI (SNB-75 CNS)?
The TGI was > 100 µM.

And the GI50 (HS 578T breast)?
The GI50 was > 100 µM.

And the TGI (HS 578T breast)?
Its TGI is > 100 µM.

What about the GI50 (786-0 renal) of the same compound?
The GI50 was > 100 µM.

And the TGI (786-0 renal)?
The TGI was > 100 µM.

What about the GI50 (SF-295 CNS) of the same compound?
Its GI50 is > 100 µM.

And the TGI (SF-295 CNS)?
The TGI was > 100 µM.

What about the GI50 (DU-145 prostate) of the same compound?
Its GI50 is > 100 µM.

And the TGI (DU-145 prostate)?
The TGI was > 100 µM.

What about the GI50 (OVCAR-8 ovarian) of the same compound?
Its GI50 is > 100 µM.

And the TGI (OVCAR-8 ovarian)?
Its TGI is > 100 µM.

And the GI50 (U251 CNS)?
Its GI50 is 61.5 µM.

And the TGI (U251 CNS)?
Its TGI is > 100 µM.

And the GI50 (RXF 393 renal)?
The GI50 was > 100 µM.

What about the TGI (RXF 393 renal) of the same compound?
The TGI was > 100 µM.

And the GI50 (UACC-62 melanoma)?
Its GI50 is > 100 µM.

And the TGI (UACC-62 melanoma)?
Its TGI is > 100 µM.

What about the GI50 (NCI-H226 lung) of the same compound?
The GI50 was > 100 µM.

And the TGI (NCI-H226 lung)?
The TGI was > 100 µM.

And the GI50 (UACC-257 melanoma)?
The GI50 was > 100 µM.

And the TGI (UACC-257 melanoma)?
Its TGI is > 100 µM.

What about the GI50 (SK-MEL-2 melanoma) of the same compound?
The GI50 was > 100 µM.

And the TGI (SK-MEL-2 melanoma)?
Its TGI is > 100 µM.

And the GI50 (COLO 205 colon)?
The GI50 was 50.9 µM.

And the TGI (COLO 205 colon)?
Its TGI is > 100 µM.

What about the GI50 (MDA-MB-231 breast) of the same compound?
Its GI50 is > 100 µM.

What about the TGI (MDA-MB-231 breast) of the same compound?
The TGI was > 100 µM.

What about the GI50 (HCT-116 colon) of the same compound?
Its GI50 is 44.8 µM.

And the TGI (HCT-116 colon)?
The TGI was > 100 µM.

And the GI50 (MCF7 breast)?
Its GI50 is 30.9 µM.

And the TGI (MCF7 breast)?
Its TGI is > 100 µM.

And the GI50 (RPMI-8226 leukemia)?
The GI50 was 27.8 µM.

And the TGI (RPMI-8226 leukemia)?
Its TGI is > 100 µM.

And the GI50 (OVCAR-5 ovarian)?
Its GI50 is > 100 µM.

And the TGI (OVCAR-5 ovarian)?
The TGI was > 100 µM.

What about the GI50 (MDA-MB-435) of the same compound?
Its GI50 is > 100 µM.

And the TGI (MDA-MB-435)?
The TGI was > 100 µM.

What about the GI50 (HT29 colon) of the same compound?
The GI50 was 34.4 µM.

What about the TGI (HT29 colon) of the same compound?
Its TGI is > 100 µM.

And the GI50 (SNB-19 CNS)?
Its GI50 is > 100 µM.
